Results on nine compounds are retold here after patent US4348264A, “Photocatalyzed process for producing carbapenams and carbapen-2-ems” (Pfizer Inc., priority 1981, dated 1982).

Holding throughout (test): Standard disc-plate method, zone of inhibition
What all share (type): cell-based

For experiment [1], the system named is Staphylococcus aureus (Antibiotic Resistant). Conditions: Staphylococcus aureus; 25 microgram discs; antibiotic resistant. The text has this:
(§1) The utility of the various compounds as intermediates to other compounds of the present invention will be evident from the preceding discussion. The antibacterial activity of these compounds, reflecting their utility in the control of susceptible bacterial infections in man and animals, as animal feed additives for promotion of growth, or as preservatives of materials biodegraded by susceptible microorganisms, is best measured by the standard disc-plate method routinely employed in clinical laboratories for determining the sensitivity of microorganisms to antimicrobial substances. Sensitivity discs are prepared by dipping a standard 6.25 mm. paper disc into a solution of the compound to be tested (conc. 1 mg./ml.) in a volatile solvent (e.g. methylene chloride) and the disc dried, producing discs containing approximately 25 microg. of the compound. The discs are placed on the surface of agar growth media seeded with the test microorganism, previously plated into Petri dishes. The plates are incubated overnight at 35°-37° C. Activity of the test compound is reflected by a zone of inhibition of bacterial growth around the test disc. The diameter of this zone provides a quantitative measure of the activity of the antibacterial substance. The activity of various compounds of the present invention is summarized in Table I. For comparison, results obtained with 10 microg. discs of ampicillin and penicillin G are included as positive controls.

The test system of experiment [2] is Vibrio percolans. As to conditions: Comamonas terrigena, 25 microgram discs.
Source text: as §1

Experiment [3] relates to Bacillus subtilis. Conditions: 25 microgram discs; for zone of inhibition at 25 µg/disc: Bacillus subtilis.
Source text: as §1

For experiment [4], the system named is Escherichia coli. Conditions: 25 microgram discs; for zone of inhibition at 25 µg/disc: Escherichia coli.
Source text: as §1

In experiment [5] the test system is Staphylococcus aureus. As to conditions: 25 microgram discs; for zone of inhibition at 25 µg/disc: Staphylococcus aureus.
Source text: as §1

Experiment [6] has as its system Micrococcus luteus. Conditions: 25 microgram discs; for zone of inhibition at 25 µg/disc: Micrococcus luteus.
Source text: as §1

One may read the zone of inhibition as the size of the clear area around the sample on an inoculated plate. Read a high zone of inhibition as a stronger effect on the plate.

Structures are written as SMILES.

For `CC(=O)OC1C(C)=C(C(=O)O)N2C(=O)CC12` (centres unmarked) [H H H CH3 H OAc II, Sodium 1-Acetoxy-2-methylcarbapen-2-em-3-carboxylate], the zone of inhibition at 25 µg/disc amounted to 8 mm in experiment [1], 18 mm in experiment [2], 13 mm in experiment [3] and 0 mm in experiment [4].

In the case of `CC(=O)OCC1=C(C(=O)OCOC(=O)C(C)(C)C)N2C(=O)CC2C1=O` (centres unmarked) [H H POM CH2OAc O II, Pivaloyloxymethyl 2-Acetoxymethyl-1-oxocarbapen-2-em-3-carboxylate], the zone of inhibition at 25 µg/disc in experiment [1] amounted to 12 mm; in experiment [5], 0 mm.

Regarding `CC(=O)OC1C(C)=C(C(=O)OCOC(=O)C(C)(C)C)N2C(=O)CC12` (centres unmarked) [H H POM CH3 H OAc II, Pivaloyloxymethyl 1-Acetoxy-2-methylcarbapen-2-em-3-carboxylate], the zone of inhibition at 25 µg/disc in experiment [1] worked out at 0 mm; in experiment [3], 14 mm; in experiment [5], 13 mm; in experiment [6], 0 mm.

Take `CC1=C(C(=O)OCOC(=O)C(C)(C)C)N2C(=O)CC2C1O` (centres unmarked) [H H POM CH3 H OH II, Pivaloyloxymethyl 1-Hydroxy-2-methylcarbapen-2-em-3-carboxylate]: the zone of inhibition at 25 µg/disc in experiment [1] turned out to be 13 mm; in experiment [3], 15 mm; in experiment [5] it was 15 mm; in experiment [4], 10 mm; in experiment [6], 10 mm.

In the case of `COC1=C(C(=O)O)N2C(=O)C(C(C)O)C2C1O` (stereo not drawn) [HET H H OCH3 H OH I, Sodium 6-alpha-(1-Hydroxyethyl)-1-hydroxy-2-methoxycarbapen-2-em-3-carboxylate], the zone of inhibition at 25 µg/disc was 22 mm in experiment [3], 27 mm in experiment [5], 11 mm in experiment [4] and 42 mm in experiment [6].

With `CC1=C(C(=O)OCOC(=O)C(C)(C)C)N2C(=O)C(C(C)O)C2C1O` (stereo not drawn) [HET H POM CH3 H OH I, pivaloyloxymethyl 6-alpha-(1-hydroxyethyl)-1-hydroxy-2-methylcarbapen-2-em-3-carboxylate], the “Zone of Inhibition” value in experiment [3] was found to be 24 mm; in experiment [5], 27 mm; in experiment [4], 14 mm; in experiment [6], 31 mm.

As to `Cc1onc(-c2ccccc2)c1C(=O)NC1C(=O)N2C(C(=O)OCOC(=O)C(C)(C)C)C(C)C(=O)C12` (centres unmarked) [MPI H POM CH3 O I, Pivaloyloxymethyl 2-Methyl-6-(5-methyl-3-phenylisoxazole-4-carboxamido)-1-oxocarbapenam-3-carboxylate], the zone of inhibition at 25 µg/disc came to 11 mm in experiment [1]; 0 mm in experiment [2]; 15 mm in experiment [3]; 0 mm in experiment [5]; 0 mm in experiment [4].

On to `CC1=C(C(=O)OCOC(=O)C(C)(C)C)N2C(=O)C(NC(=O)c3c(-c4ccccc4)noc3C)C2C1=O` (centres unmarked) [MPI H POM CH3 O II, Pivaloyloxymethyl 2-Methyl-6-(5-methyl-3-phenylisoxazole-4-carboxamido)-1-oxocarbapen-2-em-3-carboxylate], for which the zone of inhibition at 25 µg/disc in experiment [1] came to 9 mm; in experiment [2], 0 mm; in experiment [3], 21 mm; in experiment [5], 0 mm; in experiment [4] it was 0 mm.

`COC1(NC(=O)COc2ccccc2)C(=O)N2C(C(=O)OCOC(=O)C(C)(C)C)=C(C)C(=O)C21` (centres unmarked) [PMA OMe POM CH3 O II, Pivaloyloxymethyl 6-Methoxy-2-methyl-1-oxo-6-(2-phenoxyacetamido)carbapen-2-em-3-carboxylate]: the zone of inhibition at 25 µg/disc in experiment [1] was found to be 0 mm; in experiment [2], 0 mm; in experiment [3], 33 mm; in experiment [5], 8 mm; in experiment [4], 0 mm.
